Assay results taken from patent US7960556B2, “Thiadiazole derivatives for the treatment of neuro-degenerative diseases” (NV reMYND, priority 2006, dated 2011).

System: α-synuclein cytotoxicity in M17-SYNwt cells
Assay: α-synuclein cytotoxicity assay: LDH leakage from paraquat-treated M17-SYNwt neuroblastoma cells;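 note: paraquat at 32 mM co-added with compound, 40 h exposure, LDH activity released into the culture medium measured, references are DMSO-only cells and paraquat plus DMSO cells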
Details: Homo sapiens, Neuroblastoma cell; for Emax: read-out: % Inhib.

| SMILES | EC50 [nM] | Emax [%] |
| --- | --- | --- |
| CCOc1ccc(S(=O)(=O)N2CCN(c3nc(Cc4ccc(F)cc4)ns3)CC2)cc1 [compound 196, 1-[4-ethoxyphenylsulfonyl]-4-[3-(4-fluoro-benzyl)-1,2,4-thiadiazol-5-yl]piperazine] | 17.6 | 42 |
| CC(C)(C)c1ccc(S(=O)(=O)N2CCN(c3nc(Cc4ccc(Cl)cc4)ns3)CC2)cc1 [compound 69, 1-[4-tert-butylphenylsulfonyl]-4-[3-(4-chlorobenzyl)-1,2,4-thiadiazol-5-yl]piperazine] | – | 31 |
| COc1cccc(Cc2nsc(N3CCN(C(=O)c4ccc(F)cc4)C(C)C3)n2)c1 (stereo not drawn) [compound 123, 1-(4-fluorobenzoyl)-4-[3-(3-methoxybenzyl)-1,2,4-thiadiazol-5-yl]-2-methylpiperazine] | 140 | 95 |
| CC1CN(c2nc(Cc3ccccc3)ns2)CCN1C(=O)c1cccc(F)c1 (stereo not drawn) [compound 150, 1-(3-fluorobenzoyl)-4-[3-benzyl-1,2,4-thiadiazol-5-yl]-2-methylpiperazine] | 1140 | 99 |
| CCC(C(=O)NCCN1CCN(c2nc(Cc3ccc(F)cc3)ns2)CC1)c1ccccc1 (stereo not drawn) [compound 111, 2-phenyl-N-{2-[4-[3-(4-fluorobenzyl)-1,2,4-thiadiazol-5-yl]piperazin-1-yl]ethyl}butanamide] | 1790 | 79 |
| CC1CN(c2nc(Cc3ccc(F)cc3)ns2)CCN1C(=O)c1ccccc1Br (stereo not drawn) [compound 148, 1-(2-bromobenzoyl)-4-[3-(4-fluorobenzyl)-1,2,4-thiadiazol-5-yl]-2-methylpiperazine] | 860 | 56 |
| CCCCCCCCS(=O)(=O)N1CCN(c2nc(Cc3ccc(C)cc3)ns2)CC1 [compound 82, 1-(octylsulfonyl)-4-[3-(4-methylbenzyl)-1,2,4-thiadiazol-5-yl]piperazine] | 1580 | 50 |
| O=C(c1ccccc1F)N1CCN(c2nc(Cc3ccc(Cl)cc3)ns2)CC1 [compound 159, 1-(2-fluorobenzoyl)-4-[3-(4-chlorobenzyl)-1,2,4-thiadiazol-5-yl]piperazine] | 2850 | 48 |
| Cc1ccc(C(=O)N2CCN(c3nc(Cc4ccc(F)cc4)ns3)CC2C)cc1 (stereo not drawn) [compound 139, 1-(4-methylbenzoyl)-4-[3-(4-fluorobenzyl)-1,2,4-thiadiazol-5-yl]-2-methylpiperazine] | 400 | 87 |
| Cc1ccc(Cc2nsc(N3CCN(C(=O)c4ccc(F)cc4)C(C)C3)n2)cc1 (stereo not drawn) [compound 151, 1-(4-fluorobenzoyl)-4-[3-(4-methylbenzyl)-1,2,4-thiadiazol-5-yl]-2-methylpiperazine] | 1140 | 73 |
| COc1cc(NC(=O)N2CCN(c3nc(Cc4ccc(F)cc4)ns3)CC2C)cc(OC)c1 (stereo not drawn) [compound 29, N-(3,5-dimethoxyphenyl)-4-[3-(4-fluorobenzyl)-1,2,4-thiadiazol-5-yl]-2-methylpiperazine-1-carboxamide] | – | 51 |
| Cc1ccc(C(=O)NCCN2CCN(c3nc(Cc4ccc(F)cc4)ns3)CC2)cc1 [compound 101, 4-methyl-N-{2-[4-[3-(4-fluorobenzyl)-1,2,4-thiadiazol-5-yl]piperazin-1-yl]ethyl}benzamide] | 1940 | 68 |
| CC1CN(c2nc(Cc3ccc(F)cc3)ns2)CCN1C(=O)c1ccc2ccccc2c1 (stereo not drawn) [compound 132, 1-(2-naphthoyl)-4-[3-(4-fluorobenzyl)-1,2,4-thiadiazol-5-yl]-2-methylpiperazine] | 260 | 74 |
| CC1CN(c2nc(Cc3ccc(Cl)cc3)ns2)CCN1S(=O)(=O)c1cccc2ccccc12 (stereo not drawn) [compound 43, 1-[1-naphtylsulfonyl]-4-[3-(4-chlorobenzyl)-1,2,4-thiadiazol-5-yl]-2-methylpiperazine] | 890 | 35 |
| CC1CN(c2nc(Cc3ccc(F)cc3)ns2)CCN1S(=O)(=O)c1cccc(C(F)(F)F)c1 (stereo not drawn) [compound 46, 1-[3-trifluorophenylsulfonyl]-4-[3-(4-fluorobenzyl)-1,2,4-thiadiazol-5-yl]-2-methylpiperazine] | 1340 | 64 |
| CC1CN(c2nc(Cc3ccc(F)cc3)ns2)CCN1C(=O)C(Cl)c1ccccc1 (stereo not drawn) [compound 7, 1-[chloro(phenyl)acetyl]-4-[3-(4-fluorobenzyl)-1,2,4-thiadiazol-5-yl]-2-methylpiperazine] | – | 69 |
| CCCCCCc1ccc(C(=O)NCCN2CCN(c3nc(Cc4ccc(F)cc4)ns3)CC2)cc1 [compound 96, 4-hexyl-N-{2-[4-[3-(4-fluorobenzyl)-1,2,4-thiadiazol-5-yl]piperazin-1-yl]ethyl}benzamide] | 800 | 72 |
| O=C(NCCN1CCN(c2nc(Cc3ccc(F)cc3)ns2)CC1)c1cccc(F)c1 [compound 105, 3-fluoro-N-{2-[4-[3-(4-fluorobenzyl)-1,2,4-thiadiazol-5-yl]piperazin-1-yl]ethyl}benzamide] | – | 115 |
| COc1ccc(S(=O)(=O)N2CCN(c3nc(Cc4ccc(Cl)cc4)ns3)CC2)cc1 [compound 31, 1-[4-methoxyphenylsulfonyl]-4-[3-(4-chlorobenzyl)-1,2,4-thiadiazol-5-yl]piperazine] | 0.169 | 59 |

| SMILES | EC50 [nM] | Emax [%] |
| --- | --- | --- |
| Cc1ccc(Cc2nsc(N3CCN(CCNC(=O)Cc4ccc(F)cc4)CC3)n2)cc1 [compound 109, 2-(4-fluorophenyl)-N-{2-[4-[3-(4-methylbenzyl)-1,2,4-thiadiazol-5-yl]piperazin-1-yl]ethyl}acetamide] | 3520 | 93 |
| CCc1ccccc1NC(=O)N1CCN(c2nc(Cc3ccc(F)cc3)ns2)CC1C (stereo not drawn) [compound 12, N-(2-ethylphenyl)-4-[3-(4-fluorobenzyl)-1,2,4-thiadiazol-5-yl]-2-methylpiperazine-1-carboxamide] | 890 | 92 |
| CC1CN(c2nc(Cc3ccc(F)cc3)ns2)CCN1C(=O)Cc1ccc(F)cc1 (stereo not drawn) [compound 6] | – | 75 |
| Fc1ccc(Cc2nsc(N3CCN(c4cccc(C(F)(F)F)c4)CC3)n2)cc1 [compound 188, 1-(3-trifluoromethylphenyl)-4-[3-(4-fluorobenzyl)-1,2,4-thiadiazol-5-yl]piperazine] | – | 96 |
| CC(=O)Nc1ccc(S(=O)(=O)N2CCN(c3nc(Cc4ccc(C)cc4)ns3)CC2)cc1 [compound 49, 1-[4-acetamidophenylsulfonyl]-4-[3-(4-methylbenzyl)-1,2,4-thiadiazol-5-yl]piperazine] | 0.106 | 77 |
| Cc1ccc(Cc2nsc(N3CCN(S(=O)(=O)c4cccc(C(F)(F)F)c4)CC3)n2)cc1 [compound 62, 1-[3-trifluoromethylphenylsulfonyl]-4-[3-(4-methylbenzyl)-1,2,4-thiadiazol-5-yl]piperazine] | – | 45 |
| Cc1ccc(Cc2nsc(N3CCN(S(=O)(=O)c4ccc(F)cc4)C(C)C3)n2)cc1 (stereo not drawn) [compound 58, 1-[4-fluorophenylsulfonyl]-4-[3-(4-methylbenzyl)-1,2,4-thiadiazol-5-yl]-2-methylpiperazine] | 61 | 58 |
| O=C(c1ccc2c(c1)OCO2)N1CCCN(c2nc(Cc3ccc(F)cc3)ns2)CC1 [compound 191, 1-(1,3-benzodioxol-5-ylcarbonyl)-4-[3-(4-fluorobenzyl)-1,2,4-thiadiazol-5-yl]-1,4-diazepane] | – | 63 |
| CC1CN(c2nc(Cc3ccc(F)cc3)ns2)CCN1C(=O)/C=C/c1ccccc1 (stereo not drawn) [compound 87, 1-[(2E)-3-phenylprop-2-enoyl]-4-[3-(4-fluorobenzyl)-1,2,4-thiadiazol-5-yl]-2-methylpiperazine] | 2490 | 94 |
| Cc1ccc(Cc2nsc(N3CCN(C(=O)c4ccc(Cl)cc4)CC3)n2)cc1 [compound 155, 1-(4-chlorobenzoyl)-4-[3-(4-methylbenzyl)-1,2,4-thiadiazol-5-yl]piperazine] | 1640 | 76 |
| O=C(c1cccc(F)c1)N1CCN(c2nc(Cc3ccc(Cl)cc3)ns2)CC1 [compound 157, 1-(3-fluorobenzoyl)-4-[3-(4-chlorobenzyl)-1,2,4-thiadiazol-5-yl]piperazine] | 1700 | 70 |
| Cc1ccc(Cc2nsc(N3CCN(C(=O)c4ccc5c(c4)OCO5)C(C)C3)n2)cc1 (stereo not drawn) [compound 161, 1-(1,3-benzodioxol-5-ylcarbonyl)-4-[3-(4-methylbenzyl)-1,2,4-thiadiazol-5-yl]-2-methyl + B176piperazine] | 3360 | 101 |
| Cc1ccccc1C(=O)NCCN1CCN(c2nc(Cc3ccc(F)cc3)ns2)CC1 [compound 99, 2-methyl-N-{2-[4-[3-(4-fluorobenzyl)-1,2,4-thiadiazol-5-yl]piperazin-1-yl]ethyl}benzamide] | 1580 | 97 |
| Cc1ccc(Cc2nsc(N3CCN(C(=O)c4ccccc4F)C(C)C3)n2)cc1 (stereo not drawn) [compound 149, 1-(2-fluorobenzoyl)-4-[3-(4-methylbenzyl)-1,2,4-thiadiazol-5-yl]-2-methylpiperazine] | 980 | 105 |
| Cc1ccc(Cc2nsc(N3CCN(C(=O)c4ccc(C(C)(C)C)cc4)CC3)n2)cc1 [compound 183, 1-(4-tert-butylbenzoyl)-4-[3-(4-methylbenzyl)-1,2,4-thiadiazol-5-yl]piperazine] | – | 52 |
| COc1ccc(S(=O)(=O)N(C)CCNc2nc(Cc3cccc(OC)c3)ns2)cc1 [compound 214, N′-[4-methoxyphenylsulfonyl]-N-[3-(3-methoxybenzyl)-1,2,4-thiadiazol-5-yl]-N′-methylethane-1,2-diamine] | 498 | 95 |
| CC1CN(c2nc(Cc3ccc(F)cc3)ns2)CCN1C(=O)c1ccccc1Cl (stereo not drawn) [compound 166, 1-(2-chlorobenzoyl)-4-[3-(4-fluorobenzyl)-1,2,4-thiadiazol-5-yl]-2-methylpiperazine] | – | 123 |
| O=C(NCCN1CCN(c2nc(Cc3ccc(F)cc3)ns2)CC1)NCc1ccccc1 [compound 110, N-benzyl-N′-{2-[4-[3-(4-fluorobenzyl)-1,2,4-thiadiazol-5-yl]piperazin-1-yl]ethyl}urea] | – | 77 |
